#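 Following 48 hours of exposure in 96-well plates, responses at five concentrations were used to interpolate endpoints linearly. GI50: concentration for 50% inhibition of growth. The concentration for full growth arrest is given as TGI.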 Where a SMILES comes first, the peptide text is derived from it. Peptide text beside a SMILES is read from it. [ ]: non-standard residue; d: D form. The star is where a group is joined. * marks the point of attachment. Hyp = O=C(O)[CH]1C[CH](O)CN1; Cbz = O=C(OCc1ccccc1)*
# Tests used:
# Assay in all cases: NCI-60 cell line screen, 48 h
# NCI-H460 lung = test system: NCI-H460 lung
# NCI-H522 lung = test system: NCI-H522 lung
# PC-3 prostate = test system: PC-3 prostate
# MDA-N = test system: MDA-N
# EKVX NSCLC = test system: EKVX NSCLC
# UACC-62 melanoma = test system: UACC-62 melanoma
# OVCAR-4 ovarian = test system: OVCAR-4 ovarian
# OVCAR-5 ovarian = test system: OVCAR-5 ovarian
# COLO 205 colon = test system: COLO 205 colon
# MDA-MB-231 breast = test system: MDA-MB-231 breast
# SF-268 CNS = test system: SF-268 CNS
# SF-295 CNS = test system: SF-295 CNS
# BT-549 breast = test system: BT-549 breast
# A549 NSCLC = test system: A549 NSCLC
# IGROV1 ovarian = test system: IGROV1 ovarian
# SK-MEL-2 melanoma = test system: SK-MEL-2 melanoma
# CAKI-1 renal = test system: CAKI-1 renal
SMILES,TGI (NCI-H460 lung) [µM],TGI (NCI-H522 lung) [µM],TGI (PC-3 prostate) [µM],TGI (MDA-N) [µM],TGI (EKVX NSCLC) [µM],TGI (UACC-62 melanoma) [µM],TGI (OVCAR-4 ovarian) [µM],TGI (OVCAR-5 ovarian) [µM],TGI (COLO 205 colon) [µM],TGI (MDA-MB-231 breast) [µM],TGI (SF-268 CNS) [µM],TGI (SF-295 CNS) [µM],TGI (BT-549 breast) [µM],TGI (A549 NSCLC) [µM],TGI (IGROV1 ovarian) [µM],TGI (SK-MEL-2 melanoma) [µM],TGI (CAKI-1 renal) [µM],GI50 (SF-268 CNS) [µM]
NC(=O)CNC(=O)C1CC(O)CN1C(=O)C1CCCN1C(=O)OCc1ccccc1 (stereo not drawn) (Cbz-Pro-[Hyp]-Gly-NH2; configuration not given here),> 100,> 100,> 100,> 100,> 100,> 100,> 100,> 100,> 100,> 100,> 100,> 100,> 100,> 100,> 100,> 100,,
O=C(c1ccccc1)N1CCC(Nc2cccnc2)O1 (stereo not drawn),> 100,,> 100,> 100,> 100,> 100,,> 100,,> 100,> 100,> 100,> 100,> 100,> 100,> 100,,
COc1cccc(C=C(C#N)C#N)c1OC,> 100,> 100,> 100,> 100,> 100,> 100,> 100,> 100,> 100,,> 100,> 100,> 100,> 100,> 100,,> 100,
O=C(O)c1ccc2[nH]c(=O)oc2c1,> 100,,> 100,> 100,> 100,> 100,,> 100,> 100,> 100,> 100,> 100,> 100,,> 100,> 100,> 100,
CNC(=O)OCC1=C(COC(=O)NC)CN(c2ccc(OC)cc2)C1,> 100,,> 100,> 100,> 100,> 100,> 100,> 100,> 100,> 100,> 100,> 100,> 100,> 100,> 100,> 100,,
O=C1c2ccccc2C(=O)c2c1sc1nc3ccccc3n21,3.66,,6.79,3.49,4.6,3.51,,4.28,3.61,9.12,3.9,3.04,3.45,25.1,6.34,,4.27,
CCOC(=O)/C=C(\C(=O)OCC)n1cc(C)c(=O)n(Cc2cn(COCCOC(C)=O)nn2)c1=O,30.2,,38.6,50.8,22.5,33.8,48.7,29.5,11.1,40.7,31.3,46.3,24.3,56.8,31.1,34.5,7.05,
O=C1/C(=C\c2cccc(Oc3ccccc3)c2)SC(c2ccccc2)N1Cc1ccccc1 (stereo not drawn),> 100,46.1,,52.3,> 100,> 100,> 100,> 100,22,> 100,> 100,> 100,89,> 100,,45.7,> 100,
COC(OC)[C@@H]1OC[C@H](n2ccc(=O)[nH]c2=O)[C@H]1O,> 100,,> 100,> 100,> 100,> 100,> 100,> 100,> 100,> 100,> 100,> 100,> 100,> 100,> 100,> 100,> 100,
Cc1[nH]c2[nH]c(=S)nc(NC(N)=S)c2c1Cc1ccccc1,> 100,,> 100,69.1,> 100,> 100,,> 100,34,> 100,> 100,> 100,36.3,> 100,> 100,> 100,> 100,
O=C(Cc1ccccc1)Nc1nc2ccc(Cl)cc2c2nc(-c3ccco3)nn12,> 100,> 100,> 100,> 100,> 100,> 100,,> 100,> 100,> 100,> 100,> 100,> 100,> 100,> 100,> 100,> 100,
CN(C)c1ccc(C2=C([O-])c3cc(-[n+]4ccccc4)ccc3C2=O)cc1,> 100,> 100,> 100,> 100,> 100,,> 100,> 100,> 100,> 100,> 100,> 100,> 100,> 100,> 100,,> 100,
CC(O)/C=C/C1OC(=O)CC1Nc1ccc(C=O)cc1 (stereo not drawn),> 100,,> 100,> 100,> 100,58.1,> 100,> 100,> 100,> 100,> 100,> 100,> 100,> 100,> 100,74.7,,
C=CCc1cccc(/C(O)=C/C(=O)/C=C/c2ccccc2Cl)c1O,> 100,31,85,> 100,> 100,43.3,,> 100,> 58.7,> 93.6,> 100,> 87.7,> 81.3,> 100,29.6,26.2,> 100,
CCOC(=O)CCCOc1cc(-c2ccccc2F)nc2cc3c(cc12)OCO3,,,> 100,> 100,> 100,> 100,,> 100,> 100,> 100,> 100,,> 100,> 100,> 100,> 100,> 100,> 100
N#Cc1n[nH]n(-c2ccccc2)c1=O,,> 100,> 100,> 100,> 100,> 100,> 100,> 100,> 100,> 100,> 100,> 100,> 100,> 100,> 100,> 100,> 100,
CNc1cc(Cl)ccc1C(=O)N1CCC[C@H]1CO,,> 100,> 100,> 100,> 100,> 100,> 100,> 100,> 100,> 100,> 100,> 100,> 100,> 100,> 100,> 100,> 100,
Oc1cc(F)cc2cccnc12,29.3,3.16,> 100,> 100,> 100,> 42.6,> 100,> 100,> 53.4,32.9,,> 100,70.2,> 50.8,3.99,> 100,> 100,
COc1ccc(OC)c2c1ccc1c(C)c3ccccc3c(C)c12,> 100,> 100,> 100,> 100,,> 100,> 100,> 100,,> 100,> 100,,> 100,,> 100,> 100,> 100,
CCOC(=O)COc1cc(-c2ccccc2)nc2cc(F)ccc12,,,> 100,> 100,> 100,> 100,> 100,> 100,> 100,> 100,> 100,> 100,> 100,> 100,> 100,> 100,> 100,
CC(=S)NC=C(C(N)=O)C(N)=O,,> 100,> 100,> 100,> 100,> 100,,> 100,> 100,> 100,> 100,> 100,> 100,> 100,> 100,> 100,> 100,
O=C(O)c1ccc(C2=Nc3cccc4cccc(c34)N2)cc1,> 100,> 100,> 100,> 100,> 100,> 100,> 100,,> 100,> 100,> 100,> 100,> 100,> 100,> 100,> 100,> 100,
CCOC(=O)CCC(NC(=O)CNC(=O)CNC(=O)C(CCC(=O)OCC)NC(=O)C(CCC(=O)OCC)NC(=O)C(CCC(=O)OCC)NC(=O)OCc1ccccc1)C(=O)NC(CCC(=O)OCC)C(=O)NC(CCC(=O)OCC)C(=O)OCC (stereo not drawn) (Cbz-E(OEt)E(OEt)E(OEt)GGE(OEt)E(OEt)E(OEt)-OEt; configuration not given here),> 75,> 75,> 75,> 75,> 75,> 75,> 75,> 75,> 75,> 75,> 75,> 75,,> 75,> 75,> 75,> 75,

# Source: PubChem BioAssay (NCI)
